Reference: patent publication EP0609289B1, “IMIDAZOLE DERIVATIVES AND PHARMACEUTICAL COMPOSITIONS CONTAINING THE SAME” (THE UPJOHN COMPANY, priority 1991, dated 1993)

Target: Angiotensin II receptor
Assay: In vitro angiotensin II mesenteric artery receptor binding assay (test 1)
Details: rat mesenteric artery membrane fraction, 0.2 nM 125I-Ang II, 22°C, 90 minutes
Procedure: I) In vitro angiotensin II mesenteric artery receptor binding assay
According to the method (1) by Gunther et al., a membrane fraction was prepared from mesenteric artery of male rat, […] protein equivalent of it and 0.2 nM ^125I-Ang II as well as various concentrations of test compounds were incubated at 22°C for 90 minutes in an incubation buffer (50 mM Tris-HCl, 120 mM NaCl, 5 mM MgCl2. 0.25% bovine serum albumin, pH 7.2) (reaction volume; 200 µl). The incubated was cooled, and the reaction was stopped by addition of ice-cooled phosphate buffer (10 mM phosphate, 140 mM NaCI, pH 7.4, hereinafter referred to as PBS), and then the reaction solution was filtered through a glass fiber filter (Whatman CF/B), the filter was washed, dried, and then the radioactivity of captured ^125I-angiotensin II which bound to the receptor was measured by a γ-counter. Non-specific bound amount was obtained from the reaction in the presence of 1 µM of unlabeled angiotensin II. […] Res., 17:278-286, 1980].

CCCCc1nc2c(=O)n3n(c(=O)c2n1Cc1ccc(-c2ccccc2-c2nnn[nH]2)cc1)C(C(=O)NC(C)(C)C)CCC3C (stereo not shown) [Compound No. 210, 2-n-butyl-4,9-dioxo-5-methyl-5,6,7,8-tetrahydro-1-[{2'-(1H-tetrazol-5-yl)biphenyl-4-yl}methyl]-1H-1,3,4a,8a-tetraza-cyclopentanaphthalene-8-carboxy-N-t-butylamide] showed an IC50 of 29 nM.

CCCc1nc2c(=O)n3n(c(=O)c2n1Cc1ccc(-c2ccccc2-c2nnn[nH]2)cc1)C(C(=O)NC(C)(C)C)CCC3C (stereo not shown) [Compound No. 209, 4,9-dioxo-5-methyl-2-n-propyl-5,6,7,8-tetrahydro-1-[{2'-(1H-tetrazol-5-yl)biphenyl-4-yl}methyl]-1H-1,3,4a,8a-tetraza-cyclopentanaphthalene-8-carboxy-N-t-butylamide] showed an IC50 of 58 nM.

For CCc1nc2c(=O)n3n(c(=O)c2n1Cc1ccc(-c2ccccc2-c2nn[nH]n2)cc1)C1(C)CCC3(C)CC1 [compound 361, 5,8-dimethyl-5,8-ethano-2-ethyl-5,6,7,8-tetrahydro-1-[{2'-(1H-tetrazol-5-yl)biphenyl-4-yl}methyl]-1H-1,3,4a,8a-tetraza-cyclopentanaphthalene-4,9-dione], the IC50 was 55 nM.

CCCc1nc2c(=O)n3n(c(=O)c2n1Cc1ccc(-c2ccccc2-c2nnn[nH]2)cc1)C(C(=O)N(CC)CC)CCC3C (stereo not shown) [Compound No. 205, 4,9-dioxo-5-methyl-2-n-propyl-5,6,7,8-tetrahydro-1-[{2'-(1H-tetrazol-5-yl)biphenyl-4-yl}methyl]-1H-1,3,4a,8a-tetraza-cyclopentanaphthalene-8-carboxy-N,N-diethylamide] showed an IC50 of 47 nM.

For CCCc1nc2c(=O)n3n(c(=O)c2n1Cc1ccc(-c2ccccc2-c2nn[nH]n2)cc1)C1(C(=O)N(CC)CC)CCC3CC1 [Compound No. 233, 4,9-dioxo-5,8-ethano-2-n-propyl-5,6,7,8-tetrahydro-1-[{2'-(1H-tetrazol-5-yl)biphenyl-4-yl}methyl]-1H-1,3,4a,8a-tetraza-cyclopentanaphthalene-8-carboxy-N,N-diethylamide], the IC50 was over 100 nM.

Compound C/C=C/c1nc2c(n1Cc1ccc(-c3ccccc3-c3nnn[nH]3)cc1)C(=O)N1N(C2)C2(CC)CCC1(CC)CC2 [compound 521, 5,8-diethyl-5,8-ethano-2-(1-E-propenyl)-5,6,7,8-tetrahydro-1-[{2'-(1H-tetrazol-5-yl)biphenyl-4-yl}methyl]-1H,4H-1,3,4a,8a-tetraza-cyclopentanaphthalene-9-one] has an IC50 of 9.1 nM.

In the case of CCCCc1nc2c(=O)n3n(c(=O)c2n1Cc1ccc(-c2ccccc2-c2nn[nH]n2)cc1)C1(C(=O)OC)CCC3CC1 [Compound No. 156, methyl 2-n-butyl-5,8-ethano-4,9-dioxo-5,6,7,8-tetrahydro-1-[{2'-(1H-tetrazol-5-yl)biphenyl-4-yl}methyl]-1H-1,3,4a,8a-tetraza-cyclopentanaphthalene-8-carboxylate], the IC50 was 69 nM.

CCCc1nc2c(n1Cc1ccc(-c3ccccc3-c3nn[nH]n3)cc1)C(=O)N1CC(C)=C(C)CN1C2 [Compound No. 382, 5,8-dihydro-6,7-dimethyl-2-n-propyl-1-[{2'-(1H-tetrazol-5-yl)biphenyl-4-yl}methyl]-1H,4H-1,3,4a,8a-tetraza-cyclopentanaphthalene-9-one] was tested, and the IC50 was 26 nM.

For CCCc1nc2c(=O)n3n(c(=O)c2n1Cc1ccc(-c2ccccc2-c2nn[nH]n2)cc1)C1(C(=O)N(CCO)CCO)CCC3CC1 [Compound No. 241, 4,9-dioxo-5,8-ethano-2-n-propyl-5,6,7,8-tetrahydro-1-[{2'-(1H-tetrazol-5-yl)biphenyl-4-yl}methyl]-1H-1,3,4a,8a-tetraza-cyclopentanaphthalene-8-carboxy-N,N-bis(2-hydroxyethyl)amide], the IC50 was 25 nM.

With CCCCc1nc2c(=O)n3n(c(=O)c2n1Cc1ccc(C(=O)O)cc1)C1CCC3CC1 [compound 544, 2-n-butyl-1-[(4-carboxyphenyl)methyl]-5,8-ethano-5,6,7,8-tetrahydro-1H-1,3,4a,8a-tetraza-cyclopentanaphthalene-4,9-dione] the IC50 was over 100 nM.

CCCc1nc2c(=O)n3n(c(=O)c2n1Cc1ccc(-c2ccccc2-c2nn[nH]n2)cc1)C(C)CCC3C (stereo not shown) [compound 337, 5,8-dimethyl-2-n-propyl-5,6,7,8-tetrahydro-1-[{2'-(1H-tetrazol-5-yl)biphenyl-4-yl}methyl]-1H-1,3,4a,8a-tetraza-cyclopentanaphthalene-4,9-dione] gave an IC50 of 4.6 nM.

Compound CCCc1nc2c(=O)n3n(c(=O)c2n1Cc1ccc(-c2ccccc2-c2nn[nH]n2)cc1)C1CCC3(C(=O)N(CCO)CCO)CC1 [Compound No. 239, 4,9-dioxo-5,8-ethano-2-n-propyl-5,6,7,8-tetrahydro-1-[{2'-(1H-tetrazol-5-yl)biphenyl-4-yl}methyl]-1H-1,3,4a,8a-tetraza-cyclopentanaphthalene-5-carboxy-N,N-bis(2-hydroxyethyl)amide] has an IC50 of over 100 nM.

CCCc1nc2c(=O)n3n(c(=O)c2n1Cc1ccc(-c2ccccc2-c2nn[nH]n2)cc1)C(c1nc(C)no1)CCC3C (stereo not shown) [Compound No. 331, 5-methyl-8-(3-methyloxadiazol-5-yl)-2-n-propyl-5,6,7,8-tetrahydro-1-[{2'-(1H-tetrazol-5-yl)biphenyl-4-yl}methyl]-1H-1,3,4a,8a-tetraza-cyclopentanaphthalene-4,9-dione] was tested, and the IC50 was 3.9 nM.

Work on CCCCc1nc2c(=O)n3n(c(=O)c2n1Cc1ccc(C(=O)O)cc1)C(C)CCC3C(=O)O (stereo not shown) [compound 124, 2-n-butyl-1[(4-carboxyphenyl)methyl]-4,9-dioxo-8-methyl-5,6,7,8-tetrahydro-1H-1,3,4a,8a-tetraza-cyclopentanaphthalene-5-carboxylic acid] yielded an IC50 of over 100 nM.

CCCc1nc2c(n1Cc1ccc(-c3ccccc3-c3nnn[nH]3)cc1)CN1C3CCC(CC3)N1C2 [Compound No. 523, 5,8-ethano-4,5,6,7,8,9-hexahydro-2-n-propyl-1-[{2'-(1H-tetrazol-5-yl)biphenyl-4-yl}methyl]-1H-1,3,4a,8a-tetraza-cyclopentanaphthalene] gave an IC50 of over 100 nM.

Work on CCCCc1nc2c(=O)n3n(c(=O)c2n1Cc1ccc(C(=O)O)cc1)C(C(=O)O)CCC3C (stereo not shown) [compound 121, 2-n-butyl-1-[(4-carboxyphenyl)methyl]-4,9-dioxo-5-methyl-5,6,7,8-tetrahydro-1H-1,3,4a,8a-tetraza-cyclopentanaphthalene-8-carboxylic acid] yielded an IC50 of over 100 nM.

CCCCc1nc2c(=O)n3n(c(=O)c2n1Cc1ccc(-c2ccccc2-c2nn[nH]n2)cc1)C(C(=O)OCC)CCC3C (stereo not shown) [compound 167, ethyl 2-n-butyl-4,9-dioxo-5-methyl-5,6,7,8-tetrahydro-1-[{2'-(1H-tetrazol-5-yl)biphenyl-4-yl}methyl]-1H-1,3,4a,8a-tetraza-cyclopentanaphthalene-8-carboxylate] showed an IC50 of 3.2 nM.

CCc1nc2c(n1Cc1ccc(-c3ccccc3-c3nnn[nH]3)cc1)C(=O)N1N(C2)C2(CC)CCC1(CC)CC2 [Compound No. 453, 5,8-diethyl-5,8-ethano-2-ethyl-5,6,7,8-tetrahydro-1-[{2'-(1H-tetrazol-5-yl)biphenyl-4-yl}methyl]-1H,4H-1,3,4a,8a-tetraza-cyclopentanaphthalene-9-one] gave an IC50 of over 100 nM.

For CCCCc1nc2c(=O)n3n(c(=O)c2n1Cc1ccc(-c2ccccc2-c2nn[nH]n2)cc1)CCCC3 [Compound No. 47, 2-n-butyl-5,6,7,8-tetrahydro-1-[(2'-(1H-tetrazol-5-yl)biphenyl-4-yl)methyl]-1H-1,3,4a,8a-tetraza-cyclopentanaphthalene-4,9-dione], the IC50 was 5.3 nM.

With CCCc1nc2c(=O)n3n(c(=O)c2[nH]1)C(C)CCC3C (stereo not shown) [Compound No. 280, 5,8-dimethyl-2-n-propyl-5 6,7,8-tetrahydro-1H-1,3,4a,8a-tetraza-cyclopentanaphthalene-4,9-dione] the IC50 was 4.6 nM.

In the case of CCCc1nc2c(n1Cc1ccc(-c3ccccc3-c3nn[nH]n3)cc1)C(=O)N1CC(C)C(C)CN1C2 (stereo not shown) [Compound No. 378, 6,7-dimethyl-2-n-propyl-5,6,7,8-tetrahydro-1-[{2'-(1H-tetrazol-5-yl)biphenyl-4-yl}methyl]-1H,4H-1,3,4a,8a-tetraza-cyclopentanaphthalene-9-one], the IC50 was 4.6 nM.

With CCc1nc2c(=O)n3n(c(=O)c2n1Cc1ccc(-c2ccccc2-c2nn[nH]n2)cc1)C1(CC)CCC3(CC)CC1 [compound 355, 5,8-diethyl-5,8-ethano-2-ethyl-5,6,7,8-tetrahydro-1-[{2'-(1H-tetrazol-5-yl)biphenyl-4-yl}methyl]-1H-1,3,4a,8a-tetraza-cyclopentanaphthalene-4,9-dione] the IC50 was over 100 nM.

Work on CCCCc1nc2c(n1Cc1ccc(-c3ccccc3-c3nn[nH]n3)cc1)C(=O)N1C3CCC(C)(CC3)N1C2 [Compound No. 443, 2-n-butyl-5,8-ethano-5-methyl-5,6,7,8-tetrahydro-1-[{2'-(1H-tetrazol-5-yl)biphenyl-4-yl}methyl]-1H,4H-1,3,4a,8a-tetraza-cyclopentanaphthalene-9-one] yielded an IC50 of 1.3 nM.

Compound CCCc1nc2c(=O)n3n(c(=O)c2n1Cc1ccc(-c2ccccc2-c2nn[nH]n2)cc1)CC(C)=C(C)C3 [Compound No. 67, 5,8-dihydro-6,7-dimethyl-2-n-propyl-1-[(2'-(1H-tetrazol-5-yl)biphenyl-4-yl)methyl]-1H-1,3,4a,8a-tetraza-cyclopentanaphthalene-4,9-dione] has an IC50 of 14 nM.

With “2-n-butyl-5-hydroxymethyl-8-methyl-5,6,7,8-tetrahydro-1H,4H-1,3,4a,8a-tetraza-cyclopentanaphthalene-9-one [Compound No. 541]” the IC50 was over 100 nM.
